Source: article PMC6040592 (Biochemistry, 2017)

How the values were obtained:
bovine chymotrypsin = bovine chymotrypsin (Bos taurus, UniProt P00766); settings: read-out: IC50 α-chymotrypsin, value reported in the literature; cited from earlier work
E. coli GlpG [1] = target: T1, E. coli GlpG (Escherichia coli, UniProt P09391); test: GlpG in vitro activity assay; format: biochemical; settings: read-out: IC50 [μM] GlpG; inhibitor preincubated 30 min at 37 °C, Gurken substrate, 90 min
[2] = test system: nine different rhomboid proteases; test: Activity-based probe; format: binding; settings: 50 μM
VcROM = test: Activity-based probe; settings: 50 μM
E. coli GlpG [3] = target: T1, E. coli GlpG
MjROM = test: Activity-based probe; settings: 50 μM
GlpG = GlpG (Escherichia coli, UniProt P09391); settings: 1 h preincubation at 10 times IC50, 100-fold dilution, 100 min
HiGlpG = HiGlpG (Haemophilus influenzae, UniProt P44783); test: Activity-based probe; settings: 50 μM
PsAarA = PsAarA (Providencia stuartii, UniProt P46116); test: Activity-based probe; settings: 50 μM
AaROM [4] = test: AaROM in vitro activity assay; format: biochemical, Aquifex aeolicus
wild-type GlpG = wild-type GlpG (Escherichia coli, UniProt P09391); settings: 50 μM inhibitor, 23 °C overnight
AaROM [5] = test: Activity-based probe; settings: 50 μM
TmROM = test: Activity-based probe; settings: 50 μM
[6] = target: neutrophil elastase, ELA2 (Homo sapiens, UniProt P08246); settings: same concentration range in which GlpG is inhibited
rhomboids = settings: read-out: IC50 against rhomboids; isocoumarins; cited from earlier work

T1 sequence (P09391 whole entry): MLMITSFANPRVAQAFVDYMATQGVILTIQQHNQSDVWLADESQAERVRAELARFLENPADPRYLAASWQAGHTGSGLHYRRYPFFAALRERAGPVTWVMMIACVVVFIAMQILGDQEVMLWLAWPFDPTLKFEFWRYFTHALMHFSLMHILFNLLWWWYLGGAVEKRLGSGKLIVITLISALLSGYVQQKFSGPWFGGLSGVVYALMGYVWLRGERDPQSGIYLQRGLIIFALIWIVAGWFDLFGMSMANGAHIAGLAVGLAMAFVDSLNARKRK
Chain of GlpG (P09391 whole entry): as above
Chain of HiGlpG (P44783 whole entry): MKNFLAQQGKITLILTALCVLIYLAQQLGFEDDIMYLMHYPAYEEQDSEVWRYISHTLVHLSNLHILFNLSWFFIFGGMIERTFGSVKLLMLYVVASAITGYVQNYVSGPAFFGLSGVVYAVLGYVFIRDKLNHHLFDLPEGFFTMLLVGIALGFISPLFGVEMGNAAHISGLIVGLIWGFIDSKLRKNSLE
Chain of wild-type GlpG (P09391 whole entry): as the sequence (P09391 whole entry) above
Chain of PsAarA (P46116 whole entry): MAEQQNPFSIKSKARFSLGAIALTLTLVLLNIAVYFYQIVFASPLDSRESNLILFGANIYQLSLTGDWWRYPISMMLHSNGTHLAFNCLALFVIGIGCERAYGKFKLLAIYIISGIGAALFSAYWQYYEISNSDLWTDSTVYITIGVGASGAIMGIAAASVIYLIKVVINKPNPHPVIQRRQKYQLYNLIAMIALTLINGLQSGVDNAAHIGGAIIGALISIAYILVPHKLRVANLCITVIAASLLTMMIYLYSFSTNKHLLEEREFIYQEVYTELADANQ
Chain of neutrophil elastase, ELA2 (P08246 30-267): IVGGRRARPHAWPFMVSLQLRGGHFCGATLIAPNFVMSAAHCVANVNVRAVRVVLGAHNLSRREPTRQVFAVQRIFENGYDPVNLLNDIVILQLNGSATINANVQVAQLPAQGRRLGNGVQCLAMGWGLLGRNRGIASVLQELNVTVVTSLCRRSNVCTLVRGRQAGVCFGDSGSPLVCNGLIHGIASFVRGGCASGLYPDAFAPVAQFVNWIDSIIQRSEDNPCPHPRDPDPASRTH

Row | Structure (SMILES) | IC50 (bovine chymotrypsin) [µM] | IC50 (E. coli GlpG [1]) [µM] | inhibition of the activity of all nine rhomboids [2] | inhibition of ABP labelling, VcROM (VcROM) | inhibition of ABP labelling, E. coli GlpG (E. coli GlpG [3]) | inhibition of ABP labelling, MjROM (MjROM) | recovery of GlpG activity after rapid dilution (GlpG) | inhibition of ABP labelling, HiGlpG (HiGlpG) | inhibition of ABP labelling, PsAarA (PsAarA) | fold lower potency toward AaROM in comparison to GlpG (AaROM [4]) | mass shift of inhibitor-GlpG adduct (wild-type GlpG) [Da] | inhibition of ABP labelling, AaROM (AaROM [5]) | inhibition of ABP labelling, TmROM (TmROM) | inhibition of neutrophil elastase, ELA2 [6] | IC50 (rhomboids) [µM]
1 | O=c1oc(Cl)c(Cl)c2ccccc12 [DCI, dichloroisocoumarin] | 2.8 | 19 | 80–100% |  |  |  |  |  |  |  |  |  |  |  | 
2 | O=C(OCN1C(=O)c2ccccc2S1(=O)=O)c1ccccc1Cl [BSc5195] |  |  |  | active | active | active | less but noticeable recovery of GlpG activity | active | active | approximately 100 fold | 195 | only partially inhibited | only partially inhibited | appreciable inhibition | 
3 | COc1oc(=O)c2cc(N)ccc2c1Cl [JLK-6, reference compound] |  |  |  |  |  |  | No recovery of enzyme activity |  |  |  |  |  |  |  | ~6
